{"source": "patent US20250249110A1", "about": "“ANTIMICROBIAL PEPTIDE DERIVATIVE AND USE THEREOF” (SICHUAN UNIVERSITY, priority 2016, published 2025)", "key": {"[1]": {"test": "Morphology under transmission electron microscopy", "type": "physicochemical", "settings": "TEM", "procedure": "As the DP7 is positively charged, the DP7-C micelle formed by self-assembly is also positively charged in aqueous solution, showing its potential as a non-viral gene transmission vector, especially siRNA transmission vector. The morphology of DP7-C micelles formed by self-assembly and DP7-C/siRNA complexes is observed under a transmission electron microscopy (H-6009IV, Hitachi, Japan). First, 1 mg\\mL of micellar solution is diluted with distilled water and coated on a copper mesh, covered with nitrocellulose, then negatively stained with phosphotungstic acid, dried at room temperature and observed under an electron microscope. […] Under the electron microscope, the particle size of DP7-C micelles is about 60 nm, and the particle size of DP7-C micelle/siRNA complex is about 100 nm (see FIGS. 14A and 14B for the results)."}, "[2]": {"test": "Critical micelle concentration by pyrene fluorescence probe spectroscopy", "type": "physicochemical", "settings": "aqueous solution", "text": "DP7-C can be self-assembled into micelles in aqueous solution. We detected the critical micelle concentration (CMC) of DP7-C by the pyrene fluorescence probe spectroscopy.\nThe fluorescence emission spectrum of pyrene in aqueous solution has five fluorescence peaks, and the ratio of the first emission spectrum light intensity I1 to the third emission spectrum light intensity I3 in aqueous solution (the ratio of fluorescence intensity at 373 nm to that at 384 nm) is about 1.8. According to the literature, the surfactant may solubilize nonpolar organic compounds, and the surfactant at different concentrations may solubilize pyrene to varying degrees. Thus, the solubilizing ability of the solution will have an obvious mutation point after the concentration of surfactant exceeds the critical micelle concentration (CMC). […] Therefore, the CMC of […] in the solution can be determined by measuring the fluorescence spectra of pyrene in DP7-C solutions with different concentrations. […] Then, detect I1 and I3 by a fluorescence spectrophotometer. Add different volumes of sample mother liquor to BD tubes containing trace pyrene to reach the concentrations of 0.0001, 0.001, 0.01, 0.025, 0.05, 0.10, 0.125, 0.25, 0.5, 1.0 and 1.5 mg/ml respectively, and determine the fluorescence spectra of each solution. […]"}, "[3]": {"system": "293T human embryonic kidney cell line", "type": "cell-based", "settings": "293T cells, 24 h, CCK-8", "procedure": "Cytotoxicity of cations is one of the important factors that restrict the application of siRNA transfection. The toxicity of DP7-C micelles to 293T human embryonic kidney cell line, a normal cell, is detected through cell survival experiments. 293T cells are laid in a 96-well plate at a density of 3×10^3 cells per well, and 100 μL of DMEM/20% FBS medium is added to each well and incubated for 24 h. In the experiment, three groups are set up, i.e. DP7-C, PEI25K and Lipofectamin2000; and each group had 10 concentration gradients of 0, 12.5, 18.75, 25, 37, 50, 75, 100, 150 and 200 μg/mL respectively. The survival of the cells was detected by the CCK-8 method. After 24 h of dosing, 10 μL of CCK-8 solution is added to each well and incubated at 37° C. for 2 h. The absorption value of each well is detected at the wavelength of 630 nm and 450 nm by a microplate reader. The standard curve is drawn and IC50 is calculated, and the average value of 6 groups of parallel experiments is taken as the final result."}, "[4]": {"system": "Pseudomonas aeruginosa with fluorescence (PAO1-GFP)", "test": "Abdominally infected zebrafish model", "type": "in vivo", "settings": "DP7-C 1 mg/mL; green fluorescence at 3 h, 8 h, 18 h", "procedure": "Next, we established an abdominally infected zebrafish model through Pseudomonas aeruginosa with fluorescence (PAO1-GFP) to further verify the anti-infection effect of DP7-C.\nThe male and female AB wild zebrafish were mated according to the mating and breeding procedures. After spawning, the roe was collected, placed in an incubator at 28° C. and incubated in the seawater containing PTU. The seawater containing PTU was changed once a day. When zebrafish was incubated for 48 h, Pseudomonas aeruginosa with fluorescence (PAO1-GFP) diluted with DP7-C and normal saline was intraperitoneally injected, and photographs were taken at 3 h, 8 h and 18 h under a fluorescence microscope to observe the growth of PAO1-GFP in the abdomen of zebrafish."}, "[5]": {"system": "B16 metastatic melanoma in the lung", "test": "B16 mouse model of metastatic melanoma in the lung", "type": "in vivo", "procedure": "In order to further characterize the application potential of DP7-C micelles in tumor therapy, we established a B16 mouse model of metastatic melanoma in the lung and used DP7-C to transmit anti-VEGF siRNA therapeutic genes for therapeutic research. • (1) On day 0, female C57 mice aged 6-8 weeks are […] inoculated with 0.1 mL of cell suspension (containing about 2.5×10^5 B16 cells). • (2) On day 3, mice are randomly divided into 4 groups, 8 mice for each group, and are labeled. • (3) Mice are injected with 7 doses of normal saline (blank control group), blank DP7-C micelle (60 μg), DP7-C/no-sense control siRNA complex (60 μg/12 μg) or DP7-C/VEGF siRNA complex (60 μg/12 μg) respectively through tail veins. • (4) On day 20, when the mice in the control group are already very weak, all the mice are killed by cervical dislocation; the tumor tissues in the lung as well as the heart, liver, spleen, lung and kidney tissues are immediately collected, weighed and analyzed. The collected heart, liver, spleen, lung and kidney tissues are analyzed by HE staining."}, "[6]": {"settings": "tail vein injection, 7 doses, day 20"}}, "note": "Where a SMILES comes first, the peptide text is derived from it. The star is where a group is joined. Succinyl(4-O-cholesteryl) = CC(C)CCC[C@@H](C)[C@H]1CC[C@H]2[C@@H]3CC=C4C[C@@H](OC(=O)CCC(=O)*)CC[C@]4(C)[C@H]3CC[C@]12C", "data": [{"smiles": "CC[C@H](C)[C@H](NC(=O)[C@H](CCCNC(=N)N)NC(=O)[C@H](Cc1c[nH]c2ccccc12)NC(=O)[C@H](CCC(N)=O)NC(=O)[C@@H](NC(=O)CCC(=O)O[C@H]1CC[C@@]2(C)C(=CC[C@H]3[C@@H]4CC[C@H]([C@H](C)CCCC(C)C)[C@@]4(C)CC[C@@H]32)C1)C(C)C)C(=O)N[C@@H](CCCNC(=N)N)C(=O)N[C@H](C(=O)N[C@@H](C)C(=O)N[C@H](C(=O)N[C@H](C(=O)N[C@@H](CCCNC(=N)N)C(=O)N[C@@H](CCCCN)C(N)=O)[C@@H](C)CC)C(C)C)C(C)C", "note": "[DP7-C, Chol-suc-VQWRIRVAVIRK-NH2] ({Succinyl(4-O-cholesteryl)}-VQWRIRVAVIRK-NH2)", "values": [{"measurement": "particle size under the electron microscope", "setting": "[1]", "value": "about 60 nm"}, {"measurement": "critical micelle concentration (CMC)", "setting": "[2]", "value": 3.47, "unit": "µg/mL"}, {"measurement": "IC50", "setting": "[3]", "value": "exceeding 200 μg/mL"}, {"measurement": "growth rate of PAO1-GFP in zebrafish abdominal cavity", "setting": "[4]", "value": "much lower than that of NS group"}, {"measurement": "HE staining of major organ tissues", "setting": "[5]; heart, liver, spleen, kidney", "value": "no significant pathological changes"}, {"measurement": "average number of tumor nodes", "setting": "[5]; [6]", "value": "132±22"}, {"measurement": "average weight of lung tissue", "setting": "[5]; [6]", "value": "0.41 ± 0.1", "unit": "g"}]}]}
